The results in this text go back to PubChem BioAssay (NCI).

Molecules are shown by their SMILES. Values after ≈ are worked out from the molar mass of the structure shown.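 Compound exposure: 48 hours, 5 concentrations, 96-well plates. The concentration for 50% growth inhibition is given as GI50. Definition used: TGI = concentration required for complete inhibition of growth.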 Some results are limits rather than exact numbers.

Test systems include BT-549 breast; MCF7 breast; MDA-N; MALME-3M melanoma; ACHN renal; DLD-1 colon; LXFL 529 NSCLC; SNB-78 CNS; XF 498 CNS; DMS 273 small cell lung; KM20L2 colon; RXF-631 renal; DMS 114 small cell lung.
Common to all, as to assay: inhibition of tumour cell growth, NCI panel, 48 h

With `CO/N=C1\CC(NC(=O)C(F)(F)F)c2ccsc21` (stereo unspecified), the TGI in the test with BT-549 breast, with MCF7 breast, in the test with MDA-N and in the test on MALME-3M melanoma was greater than 100 µM throughout.
`COC(=O)C(Cc1cn(C(C)n2cc(CC(NC(C)=O)C(=O)OC)c3ccccc32)c2ccccc12)NC(C)=O` (stereo unspecified): the TGI with BT-549 breast, in the test on MDA-N and in the test with MALME-3M melanoma was greater than 100 µM in each case.
As to `O=c1oc2ccccc2c(O)c1Cc1ccc(Cc2c(O)c3ccccc3oc2=O)cc1`, the TGI in the test with BT-549 breast, in the test on MCF7 breast, in the test on MDA-N and in the test with MALME-3M melanoma was greater than 100 µM throughout.
Turning to `O=C(O)c1nc2ccc(C(F)(F)F)cc2[nH]c1=O`, the TGI with ACHN renal, with BT-549 breast, in the test on MCF7 breast, in the test with MDA-N and in the test with MALME-3M melanoma was greater than 100 µM in each case.
As for `CCOC(=O)c1csc(NC(=O)C(C)N2CCCC2)n1` (stereo unspecified), the TGI in the test with ACHN renal, in the test with MCF7 breast and in the test on MDA-N was greater than 100 µM throughout.
For the compound `CC(=O)NNc1nc(C)c(C(=O)NNC(=O)C(=O)Nc2ccc([N+](=O)[O-])cc2[N+](=O)[O-])s1`, the TGI in the test on ACHN renal, in the test with DLD-1 colon, with LXFL 529 NSCLC, with SNB-78 CNS, with XF 498 CNS and in the test on DMS 273 small cell lung was greater than 100 µM throughout. Moreover, the TGI with KM20L2 colon, in the test with RXF-631 renal and in the test with DMS 114 small cell lung was greater than 100 µM in each case.
For the compound `O=C1NN(C2=NNC3(C(=O)N2)c2ccccc2-c2ccccc23)C(c2ccccc2)=N/C1=C/c1ccc(Cl)cc1`, the GI50 with ACHN renal is 50.4 µg/mL (≈ 92.5 µM); in the test on BT-549 breast, 150 µg/mL (≈ 275 µM); in the test with MCF7 breast, 35.8 µg/mL (≈ 65.7 µM); in the test on MALME-3M melanoma it was 89.9 µg/mL (≈ 165 µM). The TGI in the test with ACHN renal is greater than 150 µg/mL; with BT-549 breast, greater than 150 µg/mL; in the test on MCF7 breast, 144 µg/mL; with MALME-3M melanoma it was greater than 150 µg/mL.
